Measurements taken from PubChem BioAssay AID328 (DTP/NCI, 2004).
Where “and” joins values, the source holds several entries; their conditions need not be identical. Equal values may be shown once. Inconclusive results and toxic doses are left out. Rule for the calls: active = survival T/C of 150% or more; inactive = T/C below 125% in these data. Residues, ends and D or L forms follow the SMILES beside them.

Tested on: BDF1 mice, P388 leukemia ip, median survival T/C
Assay: NCI In Vivo Anticancer Drug Screen. Data for tumor model P388 Leukemia (intraperitoneal) in B6D2F1 (BDF1) mice
Settings: endpoint: median survival time, higher = longer survival
How it was run: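 Steps: implant the tumour, treat one group with compound and another with vehicle, record survival, then divide treated by control.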

[1] = dose: 100.0 mg/kg/injection, schedule: Q04DX003 (ip), vehicle: saline with Tween-80
[2] = dose: 200.0 mg/kg/injection, schedule: Q04DX003 (ip), vehicle: saline with Tween-80
[3] = dose: 400.0 mg/kg/injection, schedule: Q04DX003 (ip), vehicle: saline with Tween-80
[4] = dose: 50.0 mg/kg/injection, schedule: Q01DX009 (ip), vehicle: saline
[5] = dose: 100.0 mg/kg/injection, schedule: Q01DX009 (ip), vehicle: saline
[6] = dose: 200.0 mg/kg/injection, schedule: Q01DX009 (ip), vehicle: saline
[7] = dose: 50.0 mg/kg/injection, schedule: Q01DX009 (ip), vehicle: other
[8] = dose: 100.0 mg/kg/injection, schedule: Q01DX009 (ip), vehicle: other

Measured: T/C

COc1cc2c(cc1OC)C1CCc3cc(OC)c(OC)cc3C1N=C2 (configuration not stated)
inactive: dose: 20.0 mg/kg/injection, schedule: Q01DX009 (ip), vehicle: saline 95 % of control | dose: 40.0 mg/kg/injection, schedule: Q01DX009 (ip), vehicle: saline 95 % of control | dose: 80.0 mg/kg/injection, schedule: Q01DX009 (ip), vehicle: saline 100 % of control | dose: 120.0 mg/kg/injection, schedule: Q01DX009 (ip), vehicle: saline 100 % of control | dose: 240.0 mg/kg/injection, schedule: Q01DX009 (ip), vehicle: saline 95 % of control

O=[N+]([O-])c1ccc(N/N=C2/C3CCC(C3)C2C(O)(C(F)(F)F)C(F)(F)F)c([N+](=O)[O-])c1 (configuration not stated)
inactive: [1] 90 % of control | [2] 90 % of control | [3] 95 % of control

CC(=N\[O-])/C(C)=N/O.CC(=N\[O-])/C(C)=N/O.CCCN.[Cl-].[Cl-].[Rh+3]
inactive: dose: 6.25 mg/kg/injection, schedule: Q01DX009 (ip), vehicle: saline 98 % of control | dose: 12.5 mg/kg/injection, schedule: Q01DX009 (ip), vehicle: saline 110 % of control | [4] 89 % of control | [5] 94 % of control | [6] 110 % of control

O=C1C=C(NC2CCCCC2)CCC1
inactive: [4] 96 % of control | [5] 99 % of control | [6] 99 % of control

CCCCCCCCN(C)N=Nc1ccc(Cl)cc1C(=O)O
inactive: dose: 100.0 mg/kg/injection, schedule: Q01DX009 (ip), vehicle: saline with Tween-80 94 % of control | dose: 200.0 mg/kg/injection, schedule: Q01DX009 (ip), vehicle: saline with Tween-80 116 % of control | dose: 400.0 mg/kg/injection, schedule: Q01DX009 (ip), vehicle: saline with Tween-80 88 % of control

NNC(=O)C1CC2C=CCC(C2)C1 (configuration not stated)
inactive: dose: 50.0 mg/kg/injection, schedule: Q01DX001 (ip), vehicle: saline with Tween-80 100 % of control | dose: 100.0 mg/kg/injection, schedule: Q01DX001 (ip), vehicle: saline with Tween-80 91 % of control | dose: 200.0 mg/kg/injection, schedule: Q01DX001 (ip), vehicle: saline with Tween-80 91 % of control

CC(=O)OC1CC2CCCCC21 (configuration not stated)
inactive: [7] 116 % of control | [8] 105 % of control | dose: 200.0 mg/kg/injection, schedule: Q01DX009 (ip), vehicle: other 100 % of control

Cc1cc(C)c(CCO)c(C)c1
inactive: dose: 0.37 mg/kg/injection, schedule: Q01DX009 (ip), vehicle: DMSO 113 % of control | dose: 0.75 mg/kg/injection, schedule: Q01DX009 (ip), vehicle: DMSO 113 % of control | dose: 1.5 mg/kg/injection, schedule: Q01DX009 (ip), vehicle: DMSO 95 % of control | dose: 3.0 mg/kg/injection, schedule: Q01DX009 (ip), vehicle: DMSO 88 % of control and 109 % of control | dose: 12.0 mg/kg/injection, schedule: Q01DX009 (ip), vehicle: DMSO 92 % of control | dose: 25.0 mg/kg/injection, schedule: Q04DX003 (ip), vehicle: DMSO 88 % of control | dose: 50.0 mg/kg/injection, schedule: Q04DX003 (ip), vehicle: DMSO 88 % of control

O/N=C/C=N/O.O/N=C/C=N/O.[Cl][Rh][Cl]
inactive: dose: 25.0 mg/kg/injection, schedule: Q01DX009 (ip), vehicle: saline 99 % of control | [4] 94 % of control | [5] 108 % of control | [6] 100 % of control | dose: 400.0 mg/kg/injection, schedule: Q01DX009 (ip), vehicle: saline 91 % of control

Cc1ccc2nc3c(nc2c1)-c1cccc2cccc-3c12
inactive: [1] 87 % of control | [2] 91 % of control | [3] 91 % of control

CCCCSc1cc(Cc2cc(C)ccc2O)c(O)c(Cc2cc(C)ccc2O)c1
inactive: [7] 107 % of control | [8] 107 % of control

O=C1NC(Cc2ccc(N(CCCl)CCCl)cc2)C(=O)O1 (configuration not stated)
active: dose: 0.12 mg/kg/injection, schedule: Q01DX009 (ip), vehicle: saline with Tween-80 150 % of control | dose: 0.25 mg/kg/injection, schedule: Q01DX009 (ip), vehicle: saline with Tween-80 159 % of control | dose: 0.5 mg/kg/injection, schedule: Q01DX009 (ip), vehicle: saline with Tween-80 168 % of control | dose: 0.8 mg/kg/injection, schedule: Q04DX003 (ip), vehicle: saline with Tween-80 154 % of control | dose: 1.0 mg/kg/injection, schedule: Q04DX003 (ip), vehicle: saline with Tween-80 163 % of control | dose: 1.3 mg/kg/injection, schedule: Q04DX003 (ip), vehicle: saline with Tween-80 159 % of control | dose: 2.0 mg/kg/injection, schedule: Q01DX009 (ip), vehicle: saline with Tween-80 230 % of control | dose: 2.0 mg/kg/injection, schedule: Q04DX003 (ip), vehicle: saline with Tween-80 168 % of control and 172 % of control | dose: 3.0 mg/kg/injection, schedule: Q04DX003 (ip), vehicle: saline with Tween-80 200 % of control | dose: 3.4 mg/kg/injection, schedule: Q04DX003 (ip), vehicle: saline with Tween-80 150 % of control | dose: 4.5 mg/kg/injection, schedule: Q04DX003 (ip), vehicle: saline with Tween-80 222 % of control | dose: 5.2 mg/kg/injection, schedule: Q04DX003 (ip), vehicle: saline with Tween-80 154 % of control | dose: 5.5 mg/kg/injection, schedule: Q01DX009 (ip), vehicle: saline with Tween-80 230 % of control | dose: 8.0 mg/kg/injection, schedule: Q01DX009 (ip), vehicle: saline with Tween-80 230 % of control | dose: 8.0 mg/kg/injection, schedule: Q04DX003 (ip), vehicle: saline with Tween-80 195 % of control | dose: 27.0 mg/kg/injection, schedule: Q04DX003 (ip), vehicle: saline with Tween-80 272 % of control (2×) and 207 % of control | dose: 40.0 mg/kg/injection, schedule: Q04DX003 (ip), vehicle: saline with Tween-80 157 % of control
inactive: dose: 0.06 mg/kg/injection, schedule: Q01DX009 (ip), vehicle: saline with Tween-80 104 % of control | dose: 0.2 mg/kg/injection, schedule: Q04DX003 (ip), vehicle: saline with Tween-80 100 % of control | dose: 0.3 mg/kg/injection, schedule: Q04DX003 (ip), vehicle: saline with Tween-80 112 % of control | dose: 0.5 mg/kg/injection, schedule: Q04DX003 (ip), vehicle: saline with Tween-80 112 % of control | dose: 12.0 mg/kg/injection, schedule: Q01DX009 (ip), vehicle: saline with Tween-80 115 % of control | dose: 60.0 mg/kg/injection, schedule: Q04DX003 (ip), vehicle: saline with Tween-80 119 % of control

CC1(C)N=C(N)N=C(N)N1c1ccc(CCCCc2ccc(Cl)cc2Cl)cc1
inactive: dose: 4.0 mg/kg/injection, schedule: Q01DX009 (ip), vehicle: saline 118 % of control | dose: 25.0 mg/kg/injection, schedule: Q01DX002 (ip), vehicle: saline 91 % of control | dose: 50.0 mg/kg/injection, schedule: Q01DX002 (ip), vehicle: saline 103 % of control

CC(=O)O.[Au].c1ccc([PH+](c2ccccc2)c2ccccc2)cc1
inactive: [1] 110 % of control

NCCCCC(N)C(=O)NC(CCCN=C(N)N)C(N)=O (stereo not drawn) (H-Lys-Arg-NH2; configuration not given here)
inactive: dose: 6.25 mg/kg/injection, schedule: Q04DX003 (ip), vehicle: water 115 % of control | dose: 12.5 mg/kg/injection, schedule: Q04DX003 (ip), vehicle: water 112 % of control | dose: 25.0 mg/kg/injection, schedule: Q01DX009 (ip), vehicle: water 101 % of control | dose: 25.0 mg/kg/injection, schedule: Q04DX003 (ip), vehicle: water 104 % of control | dose: 50.0 mg/kg/injection, schedule: Q01DX009 (ip), vehicle: water 108 % of control | dose: 50.0 mg/kg/injection, schedule: Q04DX003 (ip), vehicle: water 97 % of control | dose: 100.0 mg/kg/injection, schedule: Q01DX009 (ip), vehicle: water 111 % of control | dose: 100.0 mg/kg/injection, schedule: Q04DX003 (ip), vehicle: water 104 % of control | dose: 200.0 mg/kg/injection, schedule: Q01DX009 (ip), vehicle: water 106 % of control | dose: 400.0 mg/kg/injection, schedule: Q01DX009 (ip), vehicle: water 106 % of control

CCCCCC/C=C/C#CCCCCCCCC(=O)O
inactive: dose: 37.5 mg/kg/injection, schedule: Q01DX009 (ip), vehicle: Klucel (hydroxypropylcellulose) (HPC) 106 % of control | dose: 75.0 mg/kg/injection, schedule: Q01DX009 (ip), vehicle: Klucel (hydroxypropylcellulose) (HPC) 100 % of control | dose: 150.0 mg/kg/injection, schedule: Q01DX009 (ip), vehicle: Klucel (hydroxypropylcellulose) (HPC) 109 % of control
